# Results from patent publication US9833497B2, “Human originated EGF domain proteins and use of the same” (CHENGDU SOURCEBIO LIMITED-LIABILITY COMPANY, priority 2013, dated 2017).
# How the values were obtained:
# Assay type in all cases: cell-based
# [1] = system: E. coli BL21; experiment: MIC against Gram-negative bacteria: E. coli BL21
# Method in brief: (§1)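 Read-out is absence of bacterial growth, with MIC set at the lowest recombinant protein concentration achieving it. Bacteria, pre-grown in LB to McFarland 0.5 and resuspended, were exposed at 5×10^5 CFU/mL to two-fold diluted human EGF domain proteins in triplicate at 37° C, 175 rpm.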
# [2] = system: Proteus mirabilis; experiment: MIC against Gram-negative bacteria: Proteus mirabilis; details: for MIC: P. mirabilis
# Method in brief: as §1
# [3] = system: Pseudomonas aeruginosa; experiment: MIC against Gram-negative bacteria: Pseudomonas aeruginosa; details: for MIC: P. aeruginosa
# Method in brief: as §1
# [4] = system: Aeromonas hydrophila; experiment: MIC against Gram-negative bacteria: Aeromonas hydrophila; details: for MIC: A. hydrophila
# Method in brief: as §1
# [5] = system: Enterobacter cloacae; experiment: MIC against Gram-negative bacteria: Enterobacter cloacae; details: for MIC: E. cloacae
# Method in brief: as §1
# [6] = system: Citrobacter diversus; experiment: MIC against Gram-negative bacteria: Citrobacter diversus; details: for MIC: C. diversus
# Method in brief: as §1
# [7] = system: Serratia marcescens; experiment: MIC against Gram-negative bacteria: Serratia marcescens; details: for MIC: S. marcescens
# Method in brief: as §1
# [8] = system: Proteus vulgaris; experiment: MIC against Gram-negative bacteria: Proteus vulgaris; details: for MIC: P. vulgaris
# Method in brief: as §1
# [9] = system: Moraxella catarrhalis; experiment: MIC against Gram-negative bacteria: Moraxella catarrhalis; details: for MIC: M. catarrhalis
# Method in brief: as §1
# [10] = system: E. coli DH5α; experiment: Antibacterial activity: MIC and growth curve against E. coli DH5α in 96-well plate; details: minimal inhibitory concentration against E. coli DH5α; 96-well plate, 5×10^5 CFU/mL, 37° C., judged after 8 h
# Method in brief: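 Log-phase bacteria (OD600 ~0.5) resuspended in LB at 5×10^5 CFU/mL, exposed to recombinant protein at 50, 25, 12.5 μg/mL final in triplicate, 37 °C shaking at 175 rpm. OD600 read every 30 min; MIC is lowest concentration showing no growth.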
# [11] = system: Klebsiella pneumonia; experiment: MIC against Gram-negative bacteria: Klebsiella pneumonia; details: for MIC: K. pneumonia
# Method in brief: as §1
# [12] = E. coli BL21, 96-well plate, 5×10^5 CFU/mL, 37° C., 10 h
# [13] = Proteus mirabilis, 96-well plate, 5×10^5 CFU/mL, 37° C., 10 h
# [14] = Pseudomonas aeruginosa, 96-well plate, 5×10^5 CFU/mL, 37° C., 10 h
# [15] = Aeromonas hydrophila, 96-well plate, 5×10^5 CFU/mL, 37° C., 10 h
# [16] = Enterobacter cloacae, 96-well plate, 5×10^5 CFU/mL, 37° C., 10 h
# [17] = Citrobacter diversus, 96-well plate, 5×10^5 CFU/mL, 37° C., 10 h
# [18] = Serratia marcescens, 96-well plate, 5×10^5 CFU/mL, 37° C., 10 h
# [19] = Proteus vulgaris, 96-well plate, 5×10^5 CFU/mL, 37° C., 10 h
# [20] = Moraxella catarrhalis, 96-well plate, 5×10^5 CFU/mL, 37° C., 10 h
# [21] = Klebsiella pneumonia, 96-well plate, 5×10^5 CFU/mL, 37° C., 10 h
# [22] = 96-well plate, 5×10^5 CFU/mL, 37° C., 10 h
# [23] = E. coli BL21, 10 h cultivation at 37° C.
substance,measurement,setting,value
PRT1296 (GCEPCHKKVCAHGTCQPSSQAGFTCECQEGWMGPLCD; listed as Homo sapiens),MIC against E. coli BL21,[1]; [12],12.5 µg/mL
same,MIC against P. mirabilis,[2]; [13],25 µg/mL
same,MIC against P. aeruginosa,[3]; [14],25 µg/mL
same,MIC against A. hydrophila,[4]; [15],100 µg/mL
same,MIC against E. cloacae,[5]; [16],25 µg/mL
same,MIC against C. diversus,[6]; [17],50 µg/mL
same,MIC against S. marcescens,[7]; [18],25 µg/mL
same,MIC against P. vulgaris,[8]; [19],50 µg/mL
same,MIC against M. catarrhalis,[9]; [20],12.5 µg/mL
same,MIC,[10],50 µg/mL
same,MIC against K. pneumonia,[11]; [21],50 µg/mL
PRT1253 (WPRQCPCLVDGARYWPGQRIKADCQLCICQDGRPRRCR; listed as Homo sapiens),MIC against E. coli BL21,[1]; [12],12.5 µg/mL
same,MIC against P. mirabilis,[2]; [13],25 µg/mL
same,MIC against P. aeruginosa,[3]; [14],50 µg/mL
same,MIC against A. hydrophila,[4]; [15],50 µg/mL
same,MIC against E. cloacae,[5]; [16],12.5 µg/mL
same,MIC against C. diversus,[6]; [17],25 µg/mL
same,MIC against S. marcescens,[7]; [18],25 µg/mL
same,MIC against P. vulgaris,[8]; [19],50 µg/mL
same,MIC against M. catarrhalis,[9]; [20],12.5 µg/mL
same,MIC,[10],50 µg/mL
same,MIC against K. pneumonia,[11]; [21],25 µg/mL
PRT736 (DVNECAEEGYCSQGCTNSEGAFQCWCETGYELRPDRRSCK; listed as Homo sapiens),MIC E. coli BL21,[1]; [22],25 µg/mL
same,MIC P. mirabilis,[2]; [22],12.5 µg/mL
same,MIC P. aeruginosa,[3]; [22],50 µg/mL
same,MIC A. hydrophila,[4]; [22],25 µg/mL
same,MIC E. cloacae,[5]; [22],50 µg/mL
same,MIC C. diversus,[6]; [22],12.5 µg/mL
same,MIC S. marcescens,[7]; [22],50 µg/mL
same,MIC P. vulgaris,[8]; [22],25 µg/mL
same,MIC M. catarrhalis,[9]; [22],25 µg/mL
same,MIC,[10],12.5 µg/mL
same,MIC K. pneumonia,[11]; [22],50 µg/mL
PRT1436 (AERNCRNPELNPCSVNAQCIEERQGDVTCVCGVGWAGDGYICG; listed as Homo sapiens),MIC against E. coli BL21,"[1]; E. coli BL21, 5×10^5 CFU/mL, 10 h cultivation at 37° C.",12.5 µg/mL
same,MIC against P. mirabilis,"[2]; Proteus mirabilis, 5×10^5 CFU/mL, 10 h cultivation at 37° C.",12.5 µg/mL
same,MIC against P. aeruginosa,"[3]; Pseudomonas aeruginosa, 5×10^5 CFU/mL, 10 h cultivation at 37° C.",12.5 µg/mL
same,MIC against A. hydrophila,"[4]; Aeromonas hydrophila, 5×10^5 CFU/mL, 10 h cultivation at 37° C.",50 µg/mL
same,MIC against E. cloacae,"[5]; Enterobacter cloacae, 5×10^5 CFU/mL, 10 h cultivation at 37° C.",12.5 µg/mL
same,MIC against C. diversus,"[6]; Citrobacter diversus, 5×10^5 CFU/mL, 10 h cultivation at 37° C.",25 µg/mL
same,MIC against S. marcescens,"[7]; Serratia marcescens, 5×10^5 CFU/mL, 10 h cultivation at 37° C.",12.5 µg/mL
same,MIC against P. vulgaris,"[8]; Proteus vulgaris, 5×10^5 CFU/mL, 10 h cultivation at 37° C.",25 µg/mL
same,MIC against M. catarrhalis,"[9]; Moraxella catarrhalis, 5×10^5 CFU/mL, 10 h cultivation at 37° C.",25 µg/mL
same,MIC,[10],12.5 µg/mL
same,MIC against K. pneumonia,"[11]; Klebsiella pneumonia, 5×10^5 CFU/mL, 10 h cultivation at 37° C.",50 µg/mL
PRT1037 (DCSRPCPPGRQKSPRDPCQCVCHGSAVTTQDCC; listed as Homo sapiens),MIC,[1]; [23],50 µg/mL
same,MIC,[2]; 10 h cultivation at 37° C.,12.5 µg/mL
same,MIC,[3]; 10 h cultivation at 37° C.,50 µg/mL
same,MIC,[4]; 10 h cultivation at 37° C.,25 µg/mL
same,MIC,[5]; 10 h cultivation at 37° C.,25 µg/mL
same,MIC,[6]; 10 h cultivation at 37° C.,50 µg/mL
same,MIC,[7]; 10 h cultivation at 37° C.,50 µg/mL
same,MIC,[8]; 10 h cultivation at 37° C.,50 µg/mL
same,MIC,[9]; 10 h cultivation at 37° C.,25 µg/mL
same,MIC,[10],12.5 µg/mL
same,MIC,[11]; 10 h cultivation at 37° C.,12.5 µg/mL
PRT916 (QADPCASNPCANGGQCLPFEASYICHCPPSFHGPTCR; listed as Homo sapiens),MIC,[1]; [23],12.5 µg/mL
same,MIC,[2]; 10 h cultivation at 37° C.,25 µg/mL
same,MIC,[3]; 10 h cultivation at 37° C.,50 µg/mL
same,MIC,[4]; 10 h cultivation at 37° C.,50 µg/mL
same,MIC,[5]; 10 h cultivation at 37° C.,12.5 µg/mL
same,MIC,[6]; 10 h cultivation at 37° C.,25 µg/mL
same,MIC,[7]; 10 h cultivation at 37° C.,12.5 µg/mL
same,MIC,[8]; 10 h cultivation at 37° C.,50 µg/mL
same,MIC,[9]; 10 h cultivation at 37° C.,12.5 µg/mL
same,MIC,[10],25 µg/mL
same,MIC,[11]; 10 h cultivation at 37° C.,25 µg/mL
PRT72 (NKLDLPCPRGWWGNPVCGPCHCAVSKGFDPDCN; listed as Homo sapiens),MIC (μg/mL) E. coli BL21,[1]; [12],12.5 µg/mL
same,MIC (μg/mL) P. mirabilis,[2]; [13],12.5 µg/mL
same,MIC (μg/mL) P. aeruginosa,[3]; [14],25 µg/mL
same,MIC (μg/mL) A. hydrophila,[4]; [15],12.5 µg/mL
same,MIC (μg/mL) E. cloacae,[5]; [16],25 µg/mL
same,MIC (μg/mL) C. diversus,[6]; [17],12.5 µg/mL
same,MIC (μg/mL) S. marcescens,[7]; [18],100 µg/mL
same,MIC (μg/mL) P. vulgaris,[8]; [19],25 µg/mL
same,MIC (μg/mL) M. catarrhalis,[9]; [20],12.5 µg/mL
same,MIC,[10],12.5 µg/mL
same,MIC (μg/mL) K. pneumonia,[11]; [21],12.5 µg/mL
